Assay results: patent publication US8802639B2, “RNA interference modulators of hedgehog signaling and uses thereof” (Curis, Inc., priority 2004, dated 2014)
Values belong to the molecule of their own block, whether it stands above or below them. {P} = phosphate

Columns and labels:
[1] = tested on: Sp-C expression in embryonic mouse lungs; experiment: Sp-C (surfactant type C) expression in embryonic mouse lung explants (Q-RT-PCR); format: cell-based; conditions: embryonic lung cultures (FIG. 10, FIG. 11)
Protocol: Surfactant production is a measure of lung maturity, and the inability to produce surfactant is the primary cause of adult and infant respiratory distress syndrome. The increase in surfactant type C production was assessed by measuring expression of Sp-C, which encodes a protein critical for the production of surfactant.
METHODS: E13.5 old embryonic mouse lungs were dissected. Explants were grown submerged in lung explant medium (DMEM based, additives optimized for the culture of mouse lungs) for 50 hrs. They were then processed for Q-RT-PCR. Briefly, total ribonucleic acid (RNA) is isolated from the tissue and subjected to reverse transcription to generate DNA. This DNA is amplified in a polymerase chain reaction using gene-specific primers as well as primers for the ubiquitously expressed housekeeping gene GAPDH. The two primer sets are labeled with different fluorophores, allowing for quantification of both signals in the same reaction tube in a real-time PCR machine (TaqMan). When calculating the expression level of Sp-C, the specific signal is normalized to the GAPDH signal, which serves as a measure of the total DNA used in the reaction.
Steroids are known to increase lung maturation and surfactant production in animals, including humans.

human Shh = experiment: siRNA inhibition of Shh expression in transfected HEK-293 cells (immunostaining); format: cell-based; conditions: for inhibition of Shh expression: 0.4 μg phShh plasmid + 20, 100 or 500 pmole siRNA, about 68 hours, anti-Shh staining (FIG. 2)
Protocol: To test the effectiveness of the three siRNA antagonists, a confluent plate of HEK-293 cells were splited 1:3 and plated onto a 24-well tissue culture plate. The final density of cells was about 14,000 cells/well. Lipofectamine infection was carried out according to manufacturer's instruction. Specifically, 0.4 μg phShh^FL (a human Shh-encoding plasmid “pcDNA3.1-hShh”) and either 0, 20, 100, or 500 pmole of each annealed Shh siRNA antagonist were mixed in 25 μL of serum-free DMEM (no Pen./Strep.) with 4 μL of “Plus Reagent” for 15 minutes. At the same time, 1 μL of Lipofectamine was mixed in 25 μL of serum-free DMEM (no Pen./Strep.) with 4 μL of “Plus Reagent” for 15 minutes. At the end of the incubation, the two mixtures were combined to form complexes for 15 minutes. For each well of HEK-293 cells, the medium was changed to 200 μL of serum-free DMEM (no Pen./Strp.), and the formed complexes were then added to the respective test wells. After 3 hours of incubation at 37° C. in a 5% CO2 tissue culture incubator, 250 μL of DMEM (no Pen./Strep.) with 20% FBS were added to each well. The plate of cells were then returned to the incubator. After about 68 hours of incubation, cells in each well were fixed in 4% PFA/PAS, and stained with 1:200 dilution of rabbit anti-Shh antibody and Cy3-labeled anti-rabbit secondary antibody. […] Therefore, #1 siRNA was used for future experiments.
(§1) Next, the specificity of the inhibitory effects #1 Shh siRNA antagonist was tested against two other related Hh proteins, Ihh and Dhh. Specifically, the same HEK-293 cells were splited and seeded to a final density of about 14,000 cells/well in a 24-well tissue culture plate. The same Lipofectamine transfection as described above were carried out for each of the following combinations: • 0.4 μg of pcDNA3.1-hShh+0, 50, or 250 pmoles of siRNA #1; • 0.4 μg of pcDNA3.1-hIhh+0, 50, or 250 pmoles of siRNA #1; • 0.4 μg of pcDNA3.1-hDhh+0, 50, or 250 pmoles of siRNA #1; and, • 0.4 μg of pcDNA3.1-hShh+250 pmoles of siRNA #1 reverse strand only control.
(§2) After 2 hours of incubation with each of the complexes, the medium in each transfection well was replaced with 1 mL of fresh DMEM (no Pen./Strep.)+10% FBS, for the purpose of getting healthier cells at the end of the experiment. After 2 more days of incubation, all cells were fixed as described above, and stained with H-160 pan-Hh rabbit polyclonal antibody (Cat. No. sc-9024, Santa Cruz Biotechnology, CA) and Cy3-labeled anti-rabbit secondary antibody.

Ihh (pcDNA3.1-hIhh) = experiment: siRNA specificity test, Ihh expression in transfected HEK-293 cells; format: cell-based, human; conditions: pcDNA3.1-hIhh + 50 or 250 pmoles siRNA (FIG. 3)
Protocol: as §1, §2

Dhh (pcDNA3.1-hDhh) = experiment: siRNA specificity test, Dhh expression in transfected HEK-293 cells; format: cell-based, human; conditions: pcDNA3.1-hDhh + 50 or 250 pmoles siRNA (FIG. 3)
Protocol: as §1, §2

[2] = biological target: Sonic hedgehog (Shh), functional hedgehog protein secreted by human cancer cell lines (human) (UniProt Q15465); experiment: cell-based or functional assay
UniProt Q15465, sequence (Q15465 24-197 limits assumed): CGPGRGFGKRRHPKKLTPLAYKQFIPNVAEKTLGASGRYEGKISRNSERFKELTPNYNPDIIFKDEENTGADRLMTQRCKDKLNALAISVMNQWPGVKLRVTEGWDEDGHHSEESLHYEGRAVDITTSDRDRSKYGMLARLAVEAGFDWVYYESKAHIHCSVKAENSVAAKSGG

Molecule: C[C@]12CCC(=O)C=C1CC[C@@H]1[C@@H]2[C@@H](O)C[C@@]2(C)[C@H]1CC[C@]2(O)C(=O)CO [hydrocortisone]
- Sp-C expression [1]: increase in Sp-C expression

Molecule: siRNA #4: siRNA duplex against human Shh; sense 5′-P cag agu agc ccu aac cgc ucc (SEQ ID NO: 7), antisense SEQ ID NO: 8 (sense CAGAGUAGCCCUAACCGCUCC; antisense AGCGGUUAGGGCUACUCUGCC; RNA, 5' {P}, backbone not given here)
- inhibition of Shh expression (human Shh): less pronounced

Molecule: siRNA #1: siRNA duplex against human Shh; sense 5′-P cga gau guc ugc ugc uag ucc (SEQ ID NO: 5), antisense SEQ ID NO: 6 (sense CGAGAUGUCUGCUGCUAGUCC; antisense ACUAGCAGCAGACAUCUCGCC; RNA, 5' {P}, backbone not given here)
- inhibition of Shh expression (human Shh): nearly completely inhibits Shh expression
- specificity for Shh as compared to Ihh and Dhh (human Shh; 50 or 250 pmoles siRNA (FIG. 3)): very specific for Shh
- inhibition of expression of human Shh (human Shh; pcDNA3.1-hShh + 50 pmoles siRNA, H-160 pan-Hh staining (FIG. 3)): almost completely inhibited expression of human Shh
- inhibition of Ihh expression (Ihh (pcDNA3.1-hIhh)): did not obviously inhibit Ihh or Dhh expression
- inhibition of Dhh expression (Dhh (pcDNA3.1-hDhh)): did not obviously inhibit Ihh or Dhh expression

Molecule: siRNA #5: siRNA duplex against human Shh; sense 5′-P cgg uca agu cca gcu gaa gcc (SEQ ID NO: 9), antisense SEQ ID NO: 10 (sense CGGUCAAGUCCAGCUGAAGCC; antisense CUUCAGCUGGACUUGACCGCC; RNA, 5' {P}, backbone not given here)
- inhibition of Shh expression (human Shh): slightly less effective than #1

- inhibition of luciferase expression in S12 cells (gli-Luc assay, S12/RT-4 co-cultures), IC50 [2]: 0.085 µg/mL
- inhibition of luciferase expression in S12 cells (gli-Luc assay, S12/RT-4 co-cultures), IC90 [2]: 0.5 µg/mL
Molecule: Shh blocking antibody (5E1)
